Assays:
[1] = test system: mechanical allodynia in carrageenan-injected rats; experiment: Mechanical allodynia (von Frey, up and down method) in rat carrageenan-induced paw edema model; format: in vivo, Male Wistar rats; settings: 3 h post-carrageenan; ipsilateral paw; n=8; vehicle 8.25±1.61 g, baseline 80±7.56 g
[2] = test system: carrageenan-induced rat paw edema; experiment: Carrageenan-induced rat paw edema test; format: in vivo, Male Wistar rats; settings: for volume reduction of paw edema in rats (%): vs vehicle-treated group, single oral dose; for paw thickness: mean±SEM, n=8, vehicle 9.55±0.47 mm
[3] = cited from earlier work
[4] = design: species or system Sprague Dawley male rat; settings: rat, in vivo, po
Source text: Sprague Dawley male rat (body weights 310 gr at the time of the treatment) were used in this study. The animals were originally supplied by Harlan, Italy. Once receipt from the supplier, the animals were subjected to health examinations and acceptance. The animals were housed, in a group of three, in cages suitable for the species and were routinely kept in the following environment except for short periods of time where experimental procedures dictated otherwise. The animals were acclimatized to local housing conditions for approximately 5 days. The animals were housed in a single, exclusive room, air conditioned to provide a minimum of 15 air changes/hour. The environmental controls were set to maintain temperature within the range 22° C. and relative humidity within the range 50 to 60% with an approximate 12 hour light and 12 hour dark cycle that is controlled automatically. Food (Mucedola Standard GLP diet) and water were available ad libitum throughout the study. All animals were weighed on the day of each treatment. Clinical signs were monitored at regular intervals throughout the study in order to assess any reaction to treatment. Each animal was uniquely identified with a coloured spray on the back before the experiment. At the end of the study animals were sacrificed by exsanguination under anaesthesia. […]

Compound	paw withdrawal threshold [1]	volume reduction of paw edema in rats (%) ([2]; 1 h post-carrageenan)	volume reduction of paw edema in rats (%) ([2]; 3 h post-carrageenan)	paw thickness ([2]; 5 h post-carrageenan)	volume reduction of paw edema in rats (%) ([2]; 5 h post-carrageenan)	time to utmost level in plasma ([3]; after oral administration (Quintero 2017))	excretion half-life ([3]; expelled by the renal system)	Cmax (ng/mL) Flurbiprofen [4]	Cmax (ng/mL) Gabapentin [4]
NCC1(CC(=O)O)CCCCC1 [Gabapentin]	66.5 ± 11 g	−1.93%	−16.21%	7.45±0.26 mm	−17.27%	3 to 4 h	roughly 6 hours		
CC(C(=O)O)c1ccc(-c2ccccc2)c(F)c1 (stereo not drawn) [Flurbiprofen]	44.62 ± 14.43 g	−18.20%	−31.50%	6.5±0.28 mm	−32.0%				
Flurbiprofen-Lysine-Gabapentin [Flur/Lys/Gaba]	85.75 ± 9.86 g	−21.80%	−39.91%	5.51±0.42 mm	−42.27%			14725 ± 1267 ng/mL	3008 ± 246 ng/mL
COc1ccc2c(c1)c(CC(=O)O)c(C)n2C(=O)c1ccc(Cl)cc1 [Indomethacin]	36 ± 7.21 g	−17.68%	−35.27%	5.69±0.27 mm	−40.45%				

— patent US20250025435A1, “CO-CRYSTALS OF NONSTEROIDAL ANTI-INFLAMMATORY DRUGS, LYSINE AND GABAPENTIN, PHARMACEUTICAL COMPOSITIONS AND THEIR MEDICAL USE” (DOMPE' FARMACEUTICI SPA, priority 2021, published 2025)
